In US12098144B2, “Piperazine indazole glucocorticoid receptor antagonists” (Corcept Therapeutics Incorporated, priority 2021, dated 2024):

Target: T1, glucocorticoid receptor (Homo sapiens, UniProt P04150)
T1 construct: endogenous in cells; ATCC cat
T1 sequence (P04150 1-777): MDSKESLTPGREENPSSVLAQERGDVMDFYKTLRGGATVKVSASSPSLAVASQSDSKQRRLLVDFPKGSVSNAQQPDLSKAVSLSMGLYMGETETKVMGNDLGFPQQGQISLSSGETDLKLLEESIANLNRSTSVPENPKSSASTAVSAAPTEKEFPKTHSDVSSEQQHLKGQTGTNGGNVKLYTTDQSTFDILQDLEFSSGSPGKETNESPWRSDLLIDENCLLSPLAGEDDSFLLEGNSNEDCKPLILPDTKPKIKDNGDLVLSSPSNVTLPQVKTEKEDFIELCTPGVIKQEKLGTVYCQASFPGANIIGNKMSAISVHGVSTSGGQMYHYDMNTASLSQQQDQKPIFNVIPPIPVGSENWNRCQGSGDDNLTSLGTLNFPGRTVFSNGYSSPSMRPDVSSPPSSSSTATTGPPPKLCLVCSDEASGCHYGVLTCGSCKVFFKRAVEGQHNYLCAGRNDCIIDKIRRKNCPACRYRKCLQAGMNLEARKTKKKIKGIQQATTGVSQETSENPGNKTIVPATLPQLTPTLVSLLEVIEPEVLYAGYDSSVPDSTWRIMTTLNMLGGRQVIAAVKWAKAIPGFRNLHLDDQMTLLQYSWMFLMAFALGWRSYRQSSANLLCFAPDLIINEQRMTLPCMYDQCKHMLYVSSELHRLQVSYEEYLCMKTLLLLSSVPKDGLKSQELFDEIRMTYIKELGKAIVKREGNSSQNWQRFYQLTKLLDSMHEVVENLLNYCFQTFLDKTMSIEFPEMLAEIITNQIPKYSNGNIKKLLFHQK
Assay: Hep G2 TAT Ki: inhibition of dexamethasone-induced TAT in HepG2 cells (96 well)
Type: cell-based
Settings: challenge of 100 nM dexamethasone, IC50 converted to Ki by Cheng and Prusoff equation
Summary of the method: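 Cells lysed 15 min at 4 °C; TAT enzyme reaction 2 h at 37 °C, stopped with KOH, 30 min further at 37 °C. Inhibition fitted to 4-parameter logistic.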

| Structure (SMILES) | Ki [nM] |
| --- | --- |
| Cc1cc2c(cnn2-c2ccc(F)cc2)cc1C1CN(S(=O)(=O)c2ccc(C(F)(F)F)nc2)CCN1CC(C)C (single isomer, unassigned) [Example 102, 1-(4-fluorophenyl)-5-(1-isobutyl-4-((6-(trifluoromethyl)pyridin-3-yl)sulfonyl)piperazin-2-yl)-6-methyl-1H-indazole] | 39 |
| Cc1cc2c(cnn2-c2ccc(F)cc2)cc1C1CN(S(=O)(=O)c2cccnc2C(F)(F)F)CCN1CC(C)C (single isomer, unassigned) [Example 105, 1-(4-fluorophenyl)-5-(1-isobutyl-4-((2-(trifluoromethyl)pyridin-3-yl)sulfonyl)piperazin-2-yl)-6-methyl-1H-indazole] | 46 |
| Cc1cc2c(cnn2-c2ccc(F)cc2)cc1C1CN(S(=O)(=O)CCOC(C)C)CCN1CC(C)C (single isomer, unassigned) [Example 108, 1-(4-fluorophenyl)-5-(1-isobutyl-4-((2-isopropoxyethyl)sulfonyl)piperazin-2-yl)-6-methyl-1H-indazole] | 44 |
| Cc1cc2c(cnn2-c2ccc(F)cc2)cc1C1CN(S(=O)(=O)C2COC2)CCN1CC(C)C (single isomer, unassigned) [Example 111, 1-(4-fluorophenyl)-5-(1-isobutyl-4-(oxetan-3-ylsulfonyl)piperazin-2-yl)-6-methyl-1H-indazole] | 65 |
| Cc1cc2c(cnn2-c2ccc(F)cc2)cc1C1CN(S(=O)(=O)c2cnccc2C)CCN1CC(C)C (single isomer, unassigned) [Example 112, 1-(4-fluorophenyl)-5-(1-isobutyl-4-((4-methylpyridin-3-yl)sulfonyl)piperazin-2-yl)-6-methyl-1H-indazole] | 36 |
| Cc1cc2c(cnn2-c2ccc(F)cc2)cc1C1CN(S(=O)(=O)Cc2ccc(C#N)cc2)CCN1CC(C)C (single isomer, unassigned) [Example 114, 4-(((3-(1-(4-fluorophenyl)-6-methyl-1H-indazol-5-yl)-4-isobutylpiperazin-1-yl)sulfonyl)methyl)benzonitrile] | 55 |
| Cc1cc2c(cnn2-c2ccc(F)cc2)cc1C1CN(S(=O)(=O)c2ccc(C#N)nc2)CCN1CC(C)C (single isomer, unassigned) [Example 117, 5-((3-(1-(4-fluorophenyl)-6-methyl-1H-indazol-5-yl)-4-isobutylpiperazin-1-yl)sulfonyl)picolinonitrile] | 38 |
| Cc1cc2c(cnn2-c2ccc(F)cc2)cc1C1CN(S(=O)(=O)c2cnn(C)n2)CCN1CC1CNC(=O)C1 (single isomer, unassigned) [Example 118, 4-((2-(1-(4-fluorophenyl)-6-methyl-1H-indazol-5-yl)-4-((2-methyl-2H-1,2,3-triazol-4-yl)sulfonyl)piperazin-1-yl)methyl)pyrrolidin-2-one] | 190 |
| Cc1cc2c(cnn2-c2ccc(F)cc2)cc1C1CN(S(=O)(=O)c2cnn(C)n2)CCN1CC1CCCO1 (single isomer, unassigned) [Example 120, 1-(4-fluorophenyl)-6-methyl-5-(4-((2-methyl-2H-1,2,3-triazol-4-yl)sulfonyl)-1-((tetrahydrofuran-2-yl)methyl)piperazin-2-yl)-1H-indazole] | 65 |
| Cc1cc2c(cnn2-c2ccc(F)cc2)cc1C1CN(S(=O)(=O)c2cnn(C)n2)CCN1CC1CC(=O)N(C)C1 (single isomer, unassigned) [Example 121, 4-((2-(1-(4-fluorophenyl)-6-methyl-1H-indazol-5-yl)-4-((2-methyl-2H-1,2,3-triazol-4-yl)sulfonyl)piperazin-1-yl)methyl)-1-methylpyrrolidin-2-one] | 270 |
| CC[C@H](C)N1CCN(S(=O)(=O)c2cnn(C)n2)C[C@@H]1c1cc2cnn(-c3ccc(F)cc3)c2cc1C (single isomer, unassigned) [Example 123, 5-(1-(sec-butyl)-4-((2-methyl-2H-1,2,3-triazol-4-yl)sulfonyl)piperazin-2-yl)-1-(4-fluorophenyl)-6-methyl-1H-indazole] | 71 |

More lines, in order of falling Ki, values ahead:

| Ki [nM] | Structure (SMILES) |
| --- | --- |
| 35 | COc1ccc(S(=O)(=O)N2CCN(CC(C)C)C(c3cc4cnn(-c5ccc(F)cc5)c4cc3C)C2)cn1 (single isomer, unassigned) [Example 103, 1-(4-fluorophenyl)-5-(1-isobutyl-4-((6-methoxypyridin-3-yl)sulfonyl)piperazin-2-yl)-6-methyl-1H-indazole] |
| 33 | Cc1cc2c(cnn2-c2ccc(F)cc2)cc1C1CN(S(=O)(=O)CC(F)(F)F)CCN1CC(C)C (single isomer, unassigned) [Example 106, 1-(4-fluorophenyl)-5-(1-isobutyl-4-((2,2,2-trifluoroethyl)sulfonyl)piperazin-2-yl)-6-methyl-1H-indazole] |
| 27 | Cc1cc2c(cnn2-c2ccc(F)cc2)cc1C1CN(S(=O)(=O)c2cnn(CC(F)(F)F)c2)CCN1CC(C)C (single isomer, unassigned) [Example 110, 1-(4-fluorophenyl)-5-(1-isobutyl-4-((1-(2,2,2-trifluoroethyl)-1H-pyrazol-4-yl)sulfonyl)piperazin-2-yl)-6-methyl-1H-indazole] |
| 25 | Cc1cc2c(cnn2-c2ccc(F)cc2)cc1C1CN(S(=O)(=O)C2CCC2)CCN1CC(C)C (single isomer, unassigned) [Example 116, 5-(4-(cyclobutylsulfonyl)-1-isobutylpiperazin-2-yl)-1-(4-fluorophenyl)-6-methyl-1H-indazole] |
| 24 | Cc1cc2c(cnn2-c2ccc(F)cc2)cc1C1CN(S(=O)(=O)c2ccccn2)CCN1CC(C)C (single isomer, unassigned) [Example 115, 1-(4-fluorophenyl)-5-(1-isobutyl-4-(pyridin-2-ylsulfonyl)piperazin-2-yl)-6-methyl-1H-indazole] |
| 22 | Cc1cc2c(cnn2-c2ccc(F)cc2)cc1C1CN(S(=O)(=O)c2cccnc2C#N)CCN1CC(C)C (single isomer, unassigned) [Example 107, 3-((3-(1-(4-fluorophenyl)-6-methyl-1H-indazol-5-yl)-4-isobutylpiperazin-1-yl)sulfonyl)picolinonitrile] |
| 19 | Cc1ccc(S(=O)(=O)N2CCN(CC(C)C)C(c3cc4cnn(-c5ccc(F)cc5)c4cc3C)C2)cn1 (single isomer, unassigned) [Example 104, 1-(4-fluorophenyl)-5-(1-isobutyl-4-((6-methylpyridin-3-yl)sulfonyl)piperazin-2-yl)-6-methyl-1H-indazole] |
| 19 | Cc1cc2c(cnn2-c2ccc(F)cc2)cc1C1CN(S(=O)(=O)c2cnn(C)n2)CCN1CC1CC(C)(C)C1 (single isomer, unassigned) [Example 119, 5-(1-((3,3-dimethylcyclobutyl)methyl)-4-((2-methyl-2H-1,2,3-triazol-4-yl)sulfonyl)piperazin-2-yl)-1-(4-fluorophenyl)-6-methyl-1H-indazole] |
| 12 | Cc1cc2c(cnn2-c2ccc(F)cc2)cc1C1CN(S(=O)(=O)c2nccs2)CCN1CC(C)C (single isomer, unassigned) [Example 109, 2-((3-(1-(4-fluorophenyl)-6-methyl-1H-indazol-5-yl)-4-isobutylpiperazin-1-yl)sulfonyl)thiazole] |
